Test results from patent US10167257B2, “Indole derivatives for use in medicine” (IOmet Pharma Ltd., priority 2014, dated 2019).

Assays:
[1] = target: T1, TDO (A172 cells) (Homo sapiens, UniProt P48775); test: TDO cell-based assay (A172), kynurenine production; conditions: A172 human glioblastoma cells, 500 μM L-Trp, 48 h, kynurenine by absorbance at 490 nm
T1 construct: This assay utilised cancer cells which expressed either TDO or IDO; host or cells: A172 human glioblastoma cells
Method in brief: (§1)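 Kynurenine output was read at 490 nm after 5 min with 1% Ehrlich's reagent, using supernatants from 48 h, 37 °C cultures containing 500 μM L-Trp and test compound. TDO activity came from A172 cells. IDO activity came from SKOV-3 cells, whose expression was induced by adding 500 ng/ml IFNγ.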

[2] = target: human IDO protein (Homo sapiens, UniProt P14902); test: IDO biochemical coupled assay (hIDO); conditions: 0.17 μM human IDO protein, biochemical coupled assay with formamidase
Source text: (§2) Two different types of assay were employed: 1. A TDO and IDO biochemical coupled assay which utilised recombinantly produced and purified TDO and IDO enzymes in combination with the enzyme formamidase. This coupled enzyme system allowed conversion of N-formylkynurenine produced by TDO or IDO activity to kynurenine which was then quantified by fluorescence following addition of Erhlich's Reagent. 2. A cell-based assay for detecting the effect of test compounds on kynurenine production in two different cancer cell types. This assay utilised cancer cells which expressed either TDO or IDO and as such was used as a means of testing compound activity at these two enzymes in a cell-based context. The protocols for these are set out below.
0.17 μM of human IDO protein was pre-incubated for 10 min or 120 min at RT with test compounds in the presence of 50 mM KPO4, pH 7.0, 0.5 mM EDTA, 0.5 mM EGTA, 0.05% Triton X-100, 20 mM ascorbate, 500 U/ml catalase, 10 μM methylene blue at RT in a 384 well plate. 0.05 μg/μl kynurenine formamidase and 45 μM or 121 μM L-tryptophan (L-Trp) were added and the assays were incubated at RT for 17 min. Assays were stopped and the level of kynurenine was determined by incubation with Ehrlich's reagent to a final concentration of 1.33% at RT for 5 min. Fluorescence intensity was read at 475 nm/530 nm.

[3] = target: T2, IDO (SKOV-3 cells) (Homo sapiens, UniProt P14902); test: IDO cell-based assay (SKOV-3, IFNγ-induced), kynurenine production; conditions: SKOV-3 ovary adenocarcinoma cells, IFNγ 500 ng/ml, 500 μM L-Trp, 48 h, kynurenine by absorbance at 490 nm
T2 construct: This assay utilised cancer cells which expressed either TDO or IDO; host or cells: SKOV-3 ovary adenocarcinoma cells, IFNγ-induced
Method in brief: as §1

[4] = target: human TDO protein (Homo sapiens, UniProt P48775); test: TDO biochemical coupled assay (hTDO); conditions: 2 μM human TDO protein, biochemical coupled assay with formamidase; read-out: pIC50 in the hTDO test (converted)
Source text: as §2
2 μM of human TDO protein was pre-incubated for 10 minutes at RT with test compounds in the presence of 50 mM KH2PO4, pH 7.0, 0.5 mM EDTA, 0.5 mM EGTA, 0.05% Triton X-100, 20 mM ascorbate, 500 U/ml catalase, 10 μM methylene blue at RT in a 384 well plate. 0.05 μg/μl kynurenine formamidase and 330 μM or 178 μM L-tryptophan were added and the assays were incubated at room temperature (RT) for 17 min. Assays were stopped and the level of kynurenine was determined by incubation with Ehrlich's reagent to a final concentration of 1.33% at RT for 5 min. Fluorescence intensity was read at 475 nm/530 nm.

T1 sequence (P48775 whole entry): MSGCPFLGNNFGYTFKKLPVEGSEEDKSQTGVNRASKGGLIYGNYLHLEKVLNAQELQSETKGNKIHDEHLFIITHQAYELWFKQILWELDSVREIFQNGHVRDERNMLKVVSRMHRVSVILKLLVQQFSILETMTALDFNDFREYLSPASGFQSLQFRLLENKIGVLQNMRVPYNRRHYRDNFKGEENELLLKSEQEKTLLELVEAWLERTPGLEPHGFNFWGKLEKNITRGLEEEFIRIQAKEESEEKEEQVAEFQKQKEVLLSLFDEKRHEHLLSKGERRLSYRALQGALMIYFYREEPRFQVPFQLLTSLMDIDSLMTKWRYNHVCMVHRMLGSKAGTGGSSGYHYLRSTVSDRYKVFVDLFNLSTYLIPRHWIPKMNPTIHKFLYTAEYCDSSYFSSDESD
T2 sequence (P14902 whole entry): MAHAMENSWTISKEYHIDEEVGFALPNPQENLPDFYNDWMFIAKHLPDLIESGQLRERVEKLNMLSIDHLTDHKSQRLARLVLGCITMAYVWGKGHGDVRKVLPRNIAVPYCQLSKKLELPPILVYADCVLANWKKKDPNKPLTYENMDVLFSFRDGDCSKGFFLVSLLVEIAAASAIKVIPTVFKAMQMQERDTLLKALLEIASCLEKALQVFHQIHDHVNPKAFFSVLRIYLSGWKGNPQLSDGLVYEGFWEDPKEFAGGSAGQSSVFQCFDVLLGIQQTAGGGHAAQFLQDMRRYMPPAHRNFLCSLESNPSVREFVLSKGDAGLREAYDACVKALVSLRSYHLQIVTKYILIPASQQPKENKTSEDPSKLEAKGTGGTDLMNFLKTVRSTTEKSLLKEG
Chain of human IDO protein (P14902 whole entry): as above
Chain of human TDO protein (P48775 whole entry): as the sequence (P48775 whole entry) above

| TDO cellular assay (A172) pIC50 [1] | IDO cellular assay (SKOV3) pIC50 [3] | Structure (SMILES) | also measured |
| --- | --- | --- | --- |
| − (− = pIC50 <4.50) | +++ (+++ = pIC50 ≥5.50) | CC(NC(=O)c1cc2cc(Cl)ccc2[nH]1)c1ccc(C(=O)N(C)C)cc1 (stereo not shown) [Compound 83] | pIC50 in the hIDO assay [2]: 5.24 |
| – | – | O=C(Nc1cccnc1)c1cc2ccccc2[nH]1 [REF, reference compound] | IC50 ([1]; read-out: TDO cellular assay (A172) pIC50 (converted)): > 31.6 µM; IC50 [4]: > 102 µM; IC50 ([2]; read-out: pIC50 in the hIDO assay (converted)): > 102 µM; IC50 ([3]; read-out: IDO cellular assay (SKOV3) pIC50 (converted)): > 31.6 µM |
| − (− = pIC50 <4.50) | ++ (++ = pIC50 5.00-<5.50) | O=C(Nc1cccc2cnccc12)c1cc2ccc(F)cc2[nH]1 [Compound 2] | – |
| − (− = pIC50 <4.50) | +++ (+++ = pIC50 ≥5.50) | CC(C)C(NC(=O)c1cc2cc(F)ccc2[nH]1)c1cccs1 (stereo not shown) [Compound 23] | – |
| − (− = pIC50 <4.50) | + (+ = pIC50 4.50-<5.00) | C[C@@H](NC(=O)c1cc2c([nH]1)CCCC2)c1ccccc1 [Compound 53] | – |
| + (+ = pIC50 4.50-<5.00) | +++ (+++ = pIC50 ≥5.50) | COc1cccc(-n2cc(C(C)NC(=O)c3cc4cc(Cl)ccc4[nH]3)cn2)c1 (stereo not shown) [Compound 125] | – |
| − (− = pIC50 <4.50) | + (+ = pIC50 4.50-<5.00) | Cn1cc(C2(NC(=O)c3cc4cc(O)ccc4[nH]3)CC2)cn1 [Compound 211] | – |
| − (− = pIC50 <4.50) | +++ (+++ = pIC50 ≥5.50) | O=C(NC1(c2ccccc2)COC1)c1cc2cc(Cl)cnc2[nH]1 [Compound 171] | – |
| ++ (++ = pIC50 5.00-<5.50) | ++ (++ = pIC50 5.00-<5.50) | Cn1ccc(C2(NC(=O)c3cc4cc(Cl)ccc4[nH]3)CC2)n1 [Compound 224] | – |
| − (− = pIC50 <4.50) | ++ (++ = pIC50 5.00-<5.50) | CC(NC(=O)c1cc2cc(F)ccc2[nH]1)c1ccncc1 (stereo not shown) [Compound 58] | – |
| + (+ = pIC50 4.50-<5.00) | ++ (++ = pIC50 5.00-<5.50) | C[C@H](NS(=O)(=O)c1cc2cc(F)ccc2[nH]1)c1ccccc1 [Compound 123] | – |
| +++ (+++ = pIC50 ≥5.50) | +++ (+++ = pIC50 ≥5.50) | C[C@H](NC(=O)c1cc2cc(Cl)ccc2[nH]1)c1ccccc1 [Compound 50] | – |
| − (− = pIC50 <4.50) | + (+ = pIC50 4.50-<5.00) | C[C@H](NC(=O)c1cc2ccc(F)cc2[nH]1)c1ccccc1 [Compound 45] | – |
| +++ (+++ = pIC50 ≥5.50) | − (− = pIC50 <4.50) | CC(NC(=O)c1cc2ccc(C(N)=O)cc2[nH]1)c1ccccc1 (stereo not shown) [Compound 89] | – |
| ++ (++ = pIC50 5.00-<5.50) | ++ (++ = pIC50 5.00-<5.50) | Cc1ncc(C(C)NC(=O)c2cc3cc(Cl)ccc3[nH]2)o1 (stereo not shown) [Compound 228] | – |
| + (+ = pIC50 4.50-<5.00) | ++ (++ = pIC50 5.00-<5.50) | C[C@H](NC(=O)c1cc2ccc(Cl)cc2[nH]1)c1ccccc1 [Compound 49] | – |
| − (− = pIC50 <4.50) | ++ (++ = pIC50 5.00-<5.50) | Cc1nnc(C(C)NC(=O)c2cc3cc(Cl)ccc3[nH]2)o1 (stereo not shown) [Compound 184] | – |
| − (− = pIC50 <4.50) | +++ (+++ = pIC50 ≥5.50) | Cc1nc(C2(NC(=O)c3cc4cc(Cl)ccc4[nH]3)CC2)co1 [Compound 225] | – |
| + (+ = pIC50 4.50-<5.00) | + (+ = pIC50 4.50-<5.00) | C[C@H](NC(=O)c1cc2c(F)cccc2[nH]1)c1ccccc1 [Compound 56] | – |
| − (− = pIC50 <4.50) | +++ (+++ = pIC50 ≥5.50) | CCOc1ccc2[nH]c(C(=O)NC(C)c3cnn(C)c3)cc2c1 (stereo not shown) [Compound 272] | – |
